Experimental data: ChEMBL document CHEMBL5053512, “Discovery and Preclinical Pharmacology of an Oral Bromodomain and Extra-Terminal (BET) Inhibitor Using Scaffold-Hopping and Structure-Guided Drug Design” (J Med Chem, 2021)

Columns and labels:
[1] = Antitumour activity against patient-derived human PAT136 cells xenografted in mouse model at 1.6 mg/kg, po bid, 5 days on and 2 days off for 2 weeks; assay type: functional; settings: PAT136, 120 h, time 5 day, read-out: TGI
SK-LU-1 = assay: Anticancer activity against human SK-LU-1 cells; assay type: functional, cell-based
[2] = Elimination half life in dog at 0.1 mg/kg, iv; assay type: ADME, organism-based, Canis lupus familiaris; settings: in vivo, read-out: beta t1/2 (converted)
[3] = Antitumour activity against patient-derived human BR1367F cells xenografted in mouse model at 1.6 mg/kg, po bid, 5 days on and 2 days off for 2 weeks; assay type: functional; settings: 120 h, time 5 day, read-out: TGI
[4] = Antitumour activity against patient-derived human BR0851F cells xenografted in mouse model at 1.6 mg/kg, po bid, 5 days on and 2 days off for 2 weeks; assay type: functional; settings: 120 h, time 5 day, read-out: TGI
[5] = Antitumour activity against patient-derived human PAT149 cells xenografted in mouse model at 1.6 mg/kg, po bid, 5 days on and 2 days off for 2 weeks; assay type: functional; settings: PAT149, 120 h, time 5 day, read-out: TGI
[6] = Volume of distribution at steady state in rat at 1 mg/kg, iv; assay type: ADME, organism-based; settings: in vivo, read-out: Vdss
[7] = Cmax in mouse at 30 mg/kg, po; assay type: ADME, organism-based; parameters: dose 30 mg/kg, route po; settings: in vivo
SW900 = assay: Anticancer activity against human SW900 cells; assay type: functional, cell-based
NCI-H1355 = assay: Anticancer activity against human NCI-H1355 cells; assay type: functional, cell-based
[8] = AUC in human LG0787F cells xenografted in NSG mouse at 0.25 mg/kg/day, po bid; assay type: ADME, organism-based; parameters: dose 0.25 mg/kg/day, route po; settings: in vivo
[9] = Antitumour activity against patient-derived human PAT121 cells xenografted in mouse model at 1.6 mg/kg, po bid, 5 days on and 2 days off for 2 weeks; assay type: functional; settings: PAT121, 120 h, time 5 day, read-out: TGI
[10] = Anticancer activity against human HCC33 cells; assay type: functional, cell-based
NCI-H2009 = assay: Anticancer activity against human NCI-H2009 cells; assay type: functional, cell-based
[11] = Antitumour activity against patient-derived human BR1977F cells xenografted in mouse model at 1.6 mg/kg, po bid, 5 days on and 2 days off for 2 weeks; assay type: functional; settings: 120 h, time 5 day, read-out: TGI
[12] = Elimination half life in mouse at 1.75 mg/kg, iv; assay type: ADME, organism-based; settings: in vivo, read-out: beta t1/2 (converted)
[13] = Inhibition of c-MYC expression in human JJN3R cells measured after 4 hrs; assay type: functional, cell-based; settings: JJN-3R
[14] = Antitumour activity against human JJN3R cells measured after 72 hrs by MTS assay; assay type: functional, cell-based; settings: JJN-3R
[15] = Antitumour activity against patient-derived human BR0869F cells xenografted in mouse model at 1.6 mg/kg, po bid, 5 days on and 2 days off for 2 weeks; assay type: functional; settings: 120 h, time 5 day, read-out: TGI
NCI-H1793 = assay: Anticancer activity against human NCI-H1793 cells; assay type: functional, cell-based
NCI-H1048 = assay: Anticancer activity against human NCI-H1048 cells; assay type: functional, cell-based
[16] = Total plasma clearance in dog at 0.1 mg/kg, iv; assay type: ADME, organism-based, Canis lupus familiaris
[17] = Antitumour activity against patient-derived human PAT014 cells xenografted in mouse model at 1.6 mg/kg, po bid, 5 days on and 2 days off for 2 weeks; assay type: functional; settings: PAT014, 120 h, time 5 day, read-out: TGI
OCI-AML-3 = assay: Anticancer activity against human OCI-AML3 cells; assay type: functional, cell-based
Cytochrome P450 2C9 = Cytochrome P450 2C9 (Homo sapiens, UniProt P11712); assay: Inhibition of CYP2C9 (unknown origin); assay type: ADME
[18] = Antitumour activity against patient-derived human PAT150 cells xenografted in mouse model at 1.6 mg/kg, po bid, 5 days on and 2 days off for 2 weeks; assay type: functional; settings: PAT150, 120 h, time 5 day, read-out: TGI
[19] = biological target: Bromodomain-containing protein 3 (Homo sapiens, UniProt Q15059); assay: Inhibition of human BRD3 measured by TR-FRET assay
[20] = Oral bioavailability in mouse at 5 mg/kg; assay type: ADME, organism-based; settings: in vivo
NCI-H211 [21] = assay: Anticlonogenic activity against human NCI-H211 cells; assay type: functional, cell-based
[22] = Antitumour activity against human LG0787F cells xenografted in NSG mouse assessed as tumour growth inhibition at 1 mg/kg/day, po bid; assay type: functional; settings: read-out: TGI
DMS-114 = assay: Anticancer activity against human DMS-114 cells; assay type: functional, cell-based
MOLM-13 = assay: Anticancer activity against human MOLM-13 cells; assay type: functional, cell-based
NCI-H520 = assay: Anticancer activity against human NCI-H520 cells; assay type: functional, cell-based
NCI-H441 = assay: Anticancer activity against human NCI-H441 cells; assay type: functional, cell-based
Cytochrome P450 1A2 = Cytochrome P450 1A2 (Homo sapiens, UniProt P05177); assay: Inhibition of CYP1A2 (unknown origin); assay type: ADME
[23] = biological target: Histone acetyltransferase p300 (Homo sapiens) (UniProt Q09472)
Description: Binding affinity to EP300 (unknown origin) assessed as change in melting temperature of protein

[24] = Antitumour activity against human LG0787F cells xenografted in po dosed NSG mouse assessed as minimum effective concentration; assay type: functional; settings: dose 0.25 mg/kg/day
[25] = Antitumour activity against human LG0787F cells xenografted in NSG mouse at 1 mg/kg/day infused continuously over 6 days using Alzet pump; assay type: functional; settings: 144 h, time 6 day, read-out: TGI
[26] = Total plasma clearance in mouse at 1.75 mg/kg, iv; assay type: ADME, organism-based
NCI-H647 = assay: Anticancer activity against human NCI-H647 cells; assay type: functional, cell-based
[27] = Antitumour activity against patient-derived human PAT81 cells xenografted in mouse model at 1.6 mg/kg, po bid, 5 days on and 2 days off for 2 weeks; assay type: functional; settings: PAT81, 120 h, time 5 day, read-out: TGI
[28] = Antitumour activity against human LG0787F cells xenografted in NSG mouse assessed as tumour growth inhibition at 1 mg/kg/day, po qd; assay type: functional; settings: read-out: TGI
[29] = Permeability coefficient across apical to basolateral side in human Caco-2 cells; assay type: ADME, cell-based; settings: read-out: permeability
HCC44 = assay: Anticancer activity against human HCC44 cells; assay type: functional, cell-based
NCI-H1703 = assay: Anticancer activity against human NCI-H1703 cells; assay type: functional, cell-based
[30] = Elimination half life in rat at 1 mg/kg, iv; assay type: ADME, organism-based; settings: in vivo, read-out: beta t1/2 (converted)
[31] = Drug concentration at steady state in human LG0787F cells xenografted in NSG mouse infused continuously over 6 days using Alzet pump; assay type: ADME; settings: iv, 144 h, time 6 day
[32] = Volume of distribution at steady state in dog at 0.1 mg/kg, iv; assay type: ADME, organism-based, Canis lupus familiaris; settings: in vivo, read-out: Vdss
[33] = Metabolic stability in human liver microsomes assessed as parent compound remaining at 0.5 uM after 10 mins; assay type: ADME, Microsome; settings: read-out: Stability
NCI-H211 [34] = assay: Anticancer activity against human NCI-H211 cells; assay type: functional, cell-based
[35] = AUC in human LG0787F cells xenografted in NSG mouse at 1 mg/kg/day, po qd; assay type: ADME, organism-based; parameters: dose 1 mg/kg/day, route po; settings: in vivo
NCI-H23 = assay: Anticancer activity against human NCI-H23 cells; assay type: functional, cell-based
[36] = Cmax in human LG0787F cells xenografted in NSG mouse at 1 mg/kg/day, po bid; assay type: ADME, organism-based; parameters: dose 1 mg/kg/day, route po; settings: in vivo

Cytochrome P450 2C9, sequence (P11712 whole entry): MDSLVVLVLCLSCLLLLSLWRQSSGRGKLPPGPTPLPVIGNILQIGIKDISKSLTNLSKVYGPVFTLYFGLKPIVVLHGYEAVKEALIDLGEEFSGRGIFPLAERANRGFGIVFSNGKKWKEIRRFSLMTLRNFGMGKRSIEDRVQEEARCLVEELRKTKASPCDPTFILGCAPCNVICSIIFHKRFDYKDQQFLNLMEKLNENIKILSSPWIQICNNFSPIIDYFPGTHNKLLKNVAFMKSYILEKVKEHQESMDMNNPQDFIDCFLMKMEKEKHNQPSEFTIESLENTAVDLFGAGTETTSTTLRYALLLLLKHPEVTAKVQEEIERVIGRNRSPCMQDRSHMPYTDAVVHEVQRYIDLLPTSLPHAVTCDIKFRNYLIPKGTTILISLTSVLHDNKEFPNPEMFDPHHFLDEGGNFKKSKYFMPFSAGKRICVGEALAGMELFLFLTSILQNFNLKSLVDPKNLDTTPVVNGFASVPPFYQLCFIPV
Cytochrome P450 1A2, sequence (P05177 whole entry): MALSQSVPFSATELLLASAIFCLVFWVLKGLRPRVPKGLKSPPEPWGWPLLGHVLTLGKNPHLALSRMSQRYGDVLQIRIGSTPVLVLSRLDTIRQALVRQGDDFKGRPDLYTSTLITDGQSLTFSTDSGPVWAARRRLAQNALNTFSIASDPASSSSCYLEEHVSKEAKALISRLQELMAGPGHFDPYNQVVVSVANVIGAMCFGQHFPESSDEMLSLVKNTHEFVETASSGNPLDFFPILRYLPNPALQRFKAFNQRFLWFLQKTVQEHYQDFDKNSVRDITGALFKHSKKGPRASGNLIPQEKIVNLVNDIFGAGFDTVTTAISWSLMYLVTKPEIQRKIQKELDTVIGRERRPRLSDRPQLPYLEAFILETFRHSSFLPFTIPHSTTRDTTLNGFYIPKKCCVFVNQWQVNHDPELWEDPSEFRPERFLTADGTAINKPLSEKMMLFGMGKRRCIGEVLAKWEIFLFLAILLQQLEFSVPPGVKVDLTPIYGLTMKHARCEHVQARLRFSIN
Bromodomain-containing protein 3, sequence (Q15059 whole entry): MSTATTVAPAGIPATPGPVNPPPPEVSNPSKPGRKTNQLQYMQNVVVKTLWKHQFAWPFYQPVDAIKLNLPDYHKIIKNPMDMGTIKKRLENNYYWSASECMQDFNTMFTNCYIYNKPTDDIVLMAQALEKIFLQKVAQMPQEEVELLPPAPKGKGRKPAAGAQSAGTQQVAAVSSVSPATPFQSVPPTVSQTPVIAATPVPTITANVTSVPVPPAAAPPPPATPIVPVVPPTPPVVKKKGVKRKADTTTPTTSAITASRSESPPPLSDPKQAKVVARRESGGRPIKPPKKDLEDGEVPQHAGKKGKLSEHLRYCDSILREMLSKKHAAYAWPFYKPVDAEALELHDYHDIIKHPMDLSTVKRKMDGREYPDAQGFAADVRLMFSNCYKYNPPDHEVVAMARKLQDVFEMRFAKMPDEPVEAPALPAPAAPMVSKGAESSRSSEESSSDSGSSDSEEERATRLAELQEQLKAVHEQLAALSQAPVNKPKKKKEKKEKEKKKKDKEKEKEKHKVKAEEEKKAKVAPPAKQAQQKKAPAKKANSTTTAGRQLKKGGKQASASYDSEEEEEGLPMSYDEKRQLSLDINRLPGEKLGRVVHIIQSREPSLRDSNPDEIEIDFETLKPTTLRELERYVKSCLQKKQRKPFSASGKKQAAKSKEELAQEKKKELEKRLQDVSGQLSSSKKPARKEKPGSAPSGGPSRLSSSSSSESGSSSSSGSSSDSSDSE
Histone acetyltransferase p300 (Homo sapiens), sequence (Q09472 whole entry): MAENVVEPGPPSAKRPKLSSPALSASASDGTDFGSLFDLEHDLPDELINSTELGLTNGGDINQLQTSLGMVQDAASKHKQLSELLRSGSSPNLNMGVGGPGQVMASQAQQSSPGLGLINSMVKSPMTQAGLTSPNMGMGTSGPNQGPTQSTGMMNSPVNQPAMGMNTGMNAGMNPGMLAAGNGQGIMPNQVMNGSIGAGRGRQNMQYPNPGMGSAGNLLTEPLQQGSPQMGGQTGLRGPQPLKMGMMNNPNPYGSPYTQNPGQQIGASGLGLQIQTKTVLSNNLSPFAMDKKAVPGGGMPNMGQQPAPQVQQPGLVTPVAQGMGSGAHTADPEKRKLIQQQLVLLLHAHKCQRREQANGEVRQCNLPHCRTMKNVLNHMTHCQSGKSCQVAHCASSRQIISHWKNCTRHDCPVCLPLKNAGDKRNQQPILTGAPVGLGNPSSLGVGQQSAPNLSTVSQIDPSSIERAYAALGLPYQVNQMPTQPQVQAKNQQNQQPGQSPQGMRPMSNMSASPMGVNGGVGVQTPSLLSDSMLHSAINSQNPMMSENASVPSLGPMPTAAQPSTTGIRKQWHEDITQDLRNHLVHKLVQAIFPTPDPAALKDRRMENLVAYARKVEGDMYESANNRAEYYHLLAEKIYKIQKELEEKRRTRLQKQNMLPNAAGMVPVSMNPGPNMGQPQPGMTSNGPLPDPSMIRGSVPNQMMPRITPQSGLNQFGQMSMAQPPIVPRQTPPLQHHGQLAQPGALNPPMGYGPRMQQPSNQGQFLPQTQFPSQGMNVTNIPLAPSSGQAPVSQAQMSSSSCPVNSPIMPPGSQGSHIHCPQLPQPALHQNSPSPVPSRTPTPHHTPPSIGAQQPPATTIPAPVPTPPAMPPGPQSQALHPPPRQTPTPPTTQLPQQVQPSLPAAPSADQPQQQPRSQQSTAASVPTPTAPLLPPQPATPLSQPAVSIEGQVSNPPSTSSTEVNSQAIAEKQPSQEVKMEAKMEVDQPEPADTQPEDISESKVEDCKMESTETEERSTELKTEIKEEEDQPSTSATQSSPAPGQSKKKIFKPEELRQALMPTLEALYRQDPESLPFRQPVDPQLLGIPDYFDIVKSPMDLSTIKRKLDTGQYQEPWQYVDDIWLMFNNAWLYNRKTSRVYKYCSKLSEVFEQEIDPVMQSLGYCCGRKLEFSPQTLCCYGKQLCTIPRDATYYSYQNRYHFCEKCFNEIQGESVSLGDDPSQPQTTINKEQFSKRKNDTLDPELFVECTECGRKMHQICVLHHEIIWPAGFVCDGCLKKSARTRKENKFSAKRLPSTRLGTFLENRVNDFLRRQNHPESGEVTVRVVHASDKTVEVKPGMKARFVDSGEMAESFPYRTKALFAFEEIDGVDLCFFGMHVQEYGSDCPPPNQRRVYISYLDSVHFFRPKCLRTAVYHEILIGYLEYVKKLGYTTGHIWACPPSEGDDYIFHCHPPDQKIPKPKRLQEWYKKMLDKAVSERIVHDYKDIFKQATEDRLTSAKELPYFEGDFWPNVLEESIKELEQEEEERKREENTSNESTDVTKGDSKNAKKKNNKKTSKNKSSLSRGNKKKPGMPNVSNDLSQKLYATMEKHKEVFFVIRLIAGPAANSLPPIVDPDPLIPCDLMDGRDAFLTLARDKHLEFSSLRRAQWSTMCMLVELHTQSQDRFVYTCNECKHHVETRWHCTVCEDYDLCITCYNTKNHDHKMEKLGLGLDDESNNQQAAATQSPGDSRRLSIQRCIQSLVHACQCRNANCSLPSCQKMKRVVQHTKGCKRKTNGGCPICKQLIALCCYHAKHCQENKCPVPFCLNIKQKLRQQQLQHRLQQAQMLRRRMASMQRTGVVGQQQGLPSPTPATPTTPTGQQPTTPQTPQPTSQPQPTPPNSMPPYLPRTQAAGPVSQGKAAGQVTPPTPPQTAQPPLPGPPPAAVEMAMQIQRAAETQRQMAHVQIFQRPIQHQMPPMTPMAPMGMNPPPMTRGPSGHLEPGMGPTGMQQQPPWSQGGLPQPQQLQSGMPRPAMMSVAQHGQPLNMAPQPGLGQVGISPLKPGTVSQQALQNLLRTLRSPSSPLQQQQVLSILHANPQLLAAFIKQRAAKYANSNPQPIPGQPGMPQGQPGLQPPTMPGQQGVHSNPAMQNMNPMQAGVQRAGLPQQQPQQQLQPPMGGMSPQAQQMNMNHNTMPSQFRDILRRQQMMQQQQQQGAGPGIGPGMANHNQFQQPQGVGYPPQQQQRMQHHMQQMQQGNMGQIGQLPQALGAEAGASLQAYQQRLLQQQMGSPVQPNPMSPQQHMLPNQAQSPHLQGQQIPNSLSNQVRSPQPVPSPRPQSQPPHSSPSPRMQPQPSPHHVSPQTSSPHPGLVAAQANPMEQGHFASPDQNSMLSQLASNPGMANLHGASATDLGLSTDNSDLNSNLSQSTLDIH

IC50 (SK-LU-1): 210 nM | half-life [2]: 5.6 h | Vd [6]: 4.3 L/kg | Cmax [7]: 11900 nM | IC50 (SW900): > 500 nM | IC50 (NCI-H1355): > 500 nM | AUC [8]: 0.3 µM·h | IC50 [10]: 0.23 nM | IC50 (NCI-H2009): > 500 nM | half-life [12]: 1.8 h | IC50 [13]: 0.7 nM | IC50 (NCI-H1793): > 500 nM | IC50 (NCI-H1048): > 500 nM | clearance [16]: 15 mL/min/kg | IC50 (OCI-AML-3): 0.7 nM | IC50 (Cytochrome P450 2C9): 11800 nM | IC50 [19]: 1.1 nM | bioavailability [20]: 100% | IC50 (NCI-H211 [21]): 5.6 nM | IC50 (DMS-114): 0.32 nM | IC50 (MOLM-13): 1.7 nM | IC50 (NCI-H520): > 500 nM | IC50 (NCI-H441): 118 nM | IC50 (Cytochrome P450 1A2): > 20000 nM | ΔTm [23]: 9.5 °C | clearance [26]: 12 mL/min/kg | IC50 (NCI-H647): 441 nM | Papp A→B [29]: 13.3 ×10⁻⁶ cm/s | IC50 (HCC44): 2.7 nM | IC50 (NCI-H1703): > 500 nM | half-life [30]: 4.2 h | Css [31]: 17 nM | Vd [32]: 5.3 L/kg | remaining at 10 min, 0.5 µM [33]: 82% | IC50 (NCI-H211 [34]): 0.3 nM | AUC [35]: 0.6 µM·h | IC50 (NCI-H23): 62 nM | Cmax [36]: 40 nM
Compound: Cc1nnn(C)c1-c1cnc2c3ccc(C(C)(C)O)cc3n([C@H](c3ccccc3)C3CCOCC3)c2c1 [EZOBRESIB]
inhibition in vivo at 1.6 mg/kg [1]: 92% | inhibition in vivo at 1.6 mg/kg [3]: 68% | inhibition in vivo at 1.6 mg/kg [4]: 49% | inhibition in vivo at 1.6 mg/kg [5]: 101% | inhibition in vivo at 1.6 mg/kg [9]: 85% | inhibition in vivo at 1.6 mg/kg [11]: 88% | IC50 [14]: 3.6 nM | inhibition in vivo at 1.6 mg/kg [15]: 56% | inhibition in vivo at 1.6 mg/kg [17]: 70% | inhibition in vivo at 1.6 mg/kg [18]: 62% | inhibition in vivo at 1 mg/kg/day [22]: 70% | MEC [24]: 0.03 µM | inhibition in vivo at 1 mg/kg/day [25]: 78% | inhibition in vivo at 1.6 mg/kg [27]: 112% | inhibition in vivo at 1 mg/kg/day [28]: 50%
